Results from EP4789666A1, “RNA M6A REGULATOR COMPOSITION, PREPARATION METHOD THEREFOR, AND USE THEREOF” (SHANGHAI MERNA THERAPEUTICS CO. LTD, priority 2023, dated 2025).
Where two headings read alike, the source gives them in different places.

Columns and labels:
[1] = tested on: human HaCaT keratinocytes; assay: m6A methylation level of human keratinocytes (EpiQuik m6A RNA methylation quantification kit); assay type: cell-based; settings: 24 hours, relative to control group 1
Procedure: HaCaT cells were cultured in DMEM culture medium containing 10% fetal bovine serum, 100 U/mL penicillin, and 100 µg/mL streptomycin. Culture dishes were placed in an incubator containing 5% CO2 for culture at 37°C for 24 hours. An equal volume of DMSO was added in control group 1, 50 nM sorafenib, capecitabine, docetaxel, and osimertinib were respectively added in control groups A, B, C, and D, and 400 nM test compounds or nicotinamide were respectively added in sample groups A1, A2, B1, B2, C1, C2, D1, and D2 after the addition of 50 nM corresponding compounds. The cells were continuously cultured for 24 hours, washed with PBS, and then collected by high-speed centrifugation. Total RNA was extracted using Trizol reagent (Sigma Aldrich), and RNA m6A methylation of a sample was quantitatively detected using an EpiQuik m6A RNA methylation quantification kit. The concentrations of positive control samples for a standard curve were 0.01 ng/µl, 0.02 ng/µl, 0.05 ng/µl, 0.1 ng/µl, 0.2 ng/µl, and 0.5 ng/µl. The absorbance at 450 nm was read using a microplate reader (Tecan GENios). A quantitative calculation formula for m6A is as follows: m6A (ng) = (absorbanceofsamplewell-absorbanceofbackgroundwell)/slope of standard curve [formula] m6A (%) = m6A (ng)/RNA amount of sample (ng)*100%. [formula]
Table 1: Fold change in m6A methylation level relative to control group 1

[2] = tested on: rat models with hand-foot skin reaction; assay: Rat models with hand-foot skin reaction, topical ointment (incidence rate, histology, immunohistochemistry); assay type: in vivo, SD rats; settings: for Incidence rate, left paw: once daily 30 days; for Incidence rate, right paw: right paw with blank matrix ointment (self-control)
Procedure: After adaptive feeding for one week, SD rats (with a body weight of approximately 200 g) were randomly divided into groups with balanced body weight, with 12 rats in each group. Modeling drugs (including sorafenib, erlotinib, afatinib, and osimertinib) were respectively dissolved in a solution containing 5% of DMSO, 45% of PEG400, and 50% of H2O, and the modeling drugs were diluted to required concentrations and then administered once daily by gavage at doses shown in Table 3. After administration by gavage for 1 hour, 0.05 g of ointments containing different mass proportions of test compounds were evenly applied to left paws of the rats, a blank matrix ointment was applied to right paws of the rats to serve as a self-control, and no ointment was applied to the rats in a blank control group. After drug application, four limbs were continuously immobilized for 2 hours, then wiped with clean water to remove the residual drugs, removed from immobilization, and restored to free movement. The modeling drugs, the blank matrix ointment, and the ointments containing the test compounds were all administered once daily. After continuous administration for 30 days, the rats were euthanized, and paw plantar skin tissues were collected, fixed in 10% neutral formalin, […]. The ointments for the test compounds were prepared by mixing the compounds, white beeswax, white petrolatum, and light liquid paraffin in specific ratios (weight ratios of 3 ointments were respectively 1:18:58:23, 3:18:57:22, and 10:20:40:30). The blank matrix ointment was prepared by mixing white beeswax, white petrolatum, and light liquid paraffin in a specific ratio (weight ratio of 18:60:22).
Tissue staining: After dewaxing and rehydration, the paw plantar skin tissue sections of the above rats were stained in a hematoxylin solution for several minutes, cleaned, and placed in 1% acid alcohol for soaking until the sections faded to light blue-red. After cleaning with running water for 5 minutes, the sections were stained with eosin for 2-3 minutes, cleaned to remove excess dyes, dehydrated, then permeabilized by adding xylene for several minutes, and sealed and fixed with a neutral resin. The stratum corneum was observed under an optical microscope, and the thickness of the epidermal stratum corneum was measured using Dmetrix software.
Immunohistochemical staining: After dewaxing and hydration, the paw plantar skin tissue sections of the above rats were incubated with 3% H2O2 at room temperature for 30 minutes and blocked with 10% goat serum for 30 minutes after antigen retrieval. A KRT1 antibody (Abcam, ab93652) and a Loricrin antibody (Abcam, ab183646) were added dropwise, the sections were incubated overnight at 4°C, and an HRP secondary antibody (ZSGB-BIO, PV-6001) and a DAB kit (ZSG-BIO, ZLI9017) were added for color development. The sections were re-stained with hematoxylin, cleaned, and sealed and fixed with a neutral resin, and the expression amounts of KRT1 and Loricrin were observed under an optical microscope.
An incidence rate calculation method involves a proportion of animals in each group meeting the above criteria for determining successful modeling, that is, incidence rate = (number of successfully modeled rats/total number of rats in the group)*100%. […]

[3] = Pharmacokinetic study after single topical administration of ointment to the skin of CD-1 mice (LC-MS/MS); assay type: in vivo; settings: 3% suspension ointment
Procedure: 6 CD-1 mice were divided into 2 groups, with 3 mice per group, and then respectively received an ointment containing the compound of formula (I) by single topical administration to the backs at 1 mg/cm^2 (3% suspension ointment) with an application area of 1 cm^2. The plasma concentration and skin tissue homogenate concentration of the compound of formula (I) were determined by an LC-MS/MS method.

[4] = Afatinib 50 mg/kg model, 1% ointment on left paw
[5] = Afatinib 50 mg/kg model, 3% ointment on left paw
[6] = Afatinib 50 mg/kg model, 10% ointment on left paw
[7] = Erlotinib 70 mg/kg model, 1% ointment on left paw
[8] = Erlotinib 70 mg/kg model, 3% ointment on left paw
[9] = Erlotinib 70 mg/kg model, 10% ointment on left paw
[10] = Osimertinib 60 mg/kg model, 1% ointment on left paw
[11] = Osimertinib 60 mg/kg model, 3% ointment on left paw
[12] = Osimertinib 60 mg/kg model, 10% ointment on left paw
[13] = Sorafenib 100 mg/kg model, 1% ointment on left paw
[14] = Sorafenib 100 mg/kg model, 3% ointment on left paw
[15] = Sorafenib 100 mg/kg model, 10% ointment on left paw
[16] = dorsal skin tissue homogenate, 1 mg/cm^2, mean
[17] = mouse, topical or ocular, plasma, 1 mg/cm^2, mean

Plasma drug concentration at 24 h ([3]; 1 mg/cm^2): Below a lower detection limit | Drug concentration in skin tissues at 4 h [3, 16]: 33,033 ng/g | Drug concentration in skin tissues at 24 h [3, 16]: 7,907 ng/g | concentration at 4 h ([3]; mouse, dorsal skin tissue homogenate, 1 mg/cm^2, mean, read-out: Drug concentration in skin tissues at 4 h): 33000 ng/g | concentration at 24 h ([3]; mouse, dorsal skin tissue homogenate, 1 mg/cm^2, mean, read-out: Drug concentration in skin tissues at 24 h): 7910 ng/g | concentration at 4 h ([3]; mouse, plasma, 1 mg/cm^2, mean, read-out: Plasma drug concentration at 4 h): 6.15 ng/mL | Cmax ([3]; mouse, topical or ocular, plasma, 1 mg/cm^2, 1 cm^2, mean): 14 ng/mL | AUC(0-inf) [3, 17]: 57.5 ng·h/mL | AUC(0-t) [3, 17]: 40.7 ng·h/mL | MRT inf [3, 17]: 5.54 h | Tmax [3, 17]: 1.67 h | half-life [3, 17]: 5.15 h | AUC Extr ([3]; plasma, 1 mg/cm^2, mean): 18.9% | AUCInf/Dose ([3]; plasma, 1 mg/cm^2, mean): 1.63 kg·ng·h/mL/mg
Structure (SMILES): NC(=O)[C@H]1CCCc2c1[nH]c1ccc(Cl)cc21 [Compound of formula (I), (S)-6-chloro-2,3,4,9-tetrahydro-1H-carbazole-carboxamide]
m6A fold change ([1]; 400 nM after 50 nM capecitabine): 1.1 | m6A fold change ([1]; 400 nM after 50 nM docetaxel): 1.0 | m6A fold change ([1]; 400 nM after 50 nM osimertinib): 1.2 | m6A fold change ([1]; 400 nM after 50 nM sorafenib): 1.4 | Incidence rate, left paw [2, 4]: 3/12 (25%) | Incidence rate, left paw [2, 5]: 2/12 (17%) | Incidence rate, left paw [2, 6]: 0/12 (0%) | Incidence rate, right paw [2, 4]: 9/12 (75%) | Incidence rate, right paw [2, 5]: 4/12 (33%) | Incidence rate, right paw [2, 6]: 3/12 (25%) | Incidence rate, left paw [2, 7]: 3/12 (25%) | Incidence rate, left paw [2, 8]: 2/12 (17%) | Incidence rate, left paw [2, 9]: 1/12 (8%) | Incidence rate, right paw [2, 7]: 10/12 (83%) | Incidence rate, right paw [2, 8]: 5/12 (42%) | Incidence rate, right paw [2, 9]: 4/12 (33%) | Incidence rate, left paw [2, 10]: 2/12 (17%) | Incidence rate, left paw [2, 11]: 2/12 (17%) | Incidence rate, left paw [2, 12]: 0/12 (0%) | Incidence rate, right paw [2, 10]: 8/12 (67%) | Incidence rate, right paw [2, 11]: 4/12 (33%) | Incidence rate, right paw [2, 12]: 3/12 (25%) | Incidence rate, left paw [2, 13]: 2/12 (17%) | Incidence rate, left paw [2, 14]: 2/12 (17%) | Incidence rate, left paw [2, 15]: 0/12 (0%) | Incidence rate, right paw [2, 13]: 9/12 (75%) | Incidence rate, right paw [2, 14]: 4/12 (33%) | Incidence rate, right paw [2, 15]: 4/12 (33%)
